Test system: CYP121

| Structure (SMILES) | absorbance (Soret peak) of ligand-bound CYP121 [nm] |
| --- | --- |
| Clc1ccccc1C(c1ccccc1)(c1ccccc1)n1ccnc1 [clotrimazole] | 424 |
| CC(=O)N1CCN(c2ccc(OCC3COC(Cn4ccnc4)(c4ccc(Cl)cc4Cl)O3)cc2)CC1 (centres unmarked) [ketoconazole] | 421 |

— PMC10416055, “Structural basis of bidirectional allostery across the heme in a cytochrome P450 enzyme” (The Journal of Biological Chemistry, 2023)
